US7294641B2, “Heterocyclic compound for stimulating or inducing the growth of the hair or eyelashes and/or slowing down their loss, composition comprising it and its uses” (L'Oreal, priority 2002, dated 2007)
Counter-ions that a name gives are not always drawn.

How the values were obtained:
PGF synthase = biological target: T1, PGF synthase (Homo sapiens, UniProt P42330); assay: Test on PGFS (spectrophotometric, 340 nm, 9,10-phenanthrenequinone/β-NADPH); format: biochemical; settings: Tris 100 mM pH 6.5, 37° C., 20 μM 9,10-phenanthrenequinone, 100 μM β-NADPH; read-out: Inhibition of PGFS IC50fs
T1 construct: made in house
T1 sequence (P42330 1-323): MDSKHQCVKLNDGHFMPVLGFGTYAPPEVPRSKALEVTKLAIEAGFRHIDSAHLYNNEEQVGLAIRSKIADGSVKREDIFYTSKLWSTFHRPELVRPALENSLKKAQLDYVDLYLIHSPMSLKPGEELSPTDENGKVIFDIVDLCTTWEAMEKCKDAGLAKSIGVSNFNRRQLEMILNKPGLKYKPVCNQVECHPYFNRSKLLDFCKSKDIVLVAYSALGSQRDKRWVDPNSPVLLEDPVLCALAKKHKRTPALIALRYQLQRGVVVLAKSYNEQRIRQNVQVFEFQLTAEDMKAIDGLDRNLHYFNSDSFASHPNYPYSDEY
Procedure: The enzyme PGF synthase is obtained as disclosed in the document FR-A-02/05067, at a concentration of 0.5 mg/ml, in suspension in an appropriate medium, and is blocked at −80° C. For the requirements of the test, this suspension is defrosted and stored in ice.
Furthermore, a Tris 100 mM, pH=6.5, buffer comprising 20 μM of 9,10-phenanthrenequinone* (P2896, Sigma-Aldrich, L'isle D'Abeau Chesne, BP 701, 38297, Saint Quentin Fallavier) and 100 μM of β-NADPH(N1630, Sigma-Aldrich, L'isle D'Abeau Chesne, BP 701, 38297, Saint Quentin Fallavier) is prepared in a brown bottle (exclusion of light).
* A mother solution assaying 1 mM is prepared in absolute ethanol and is brought to 40° C.; the bottle is placed in an ultrasonic bath to facilitate the dissolution of the product.
0.950 ml of this buffer (brought beforehand to 37° C.) is introduced into the cell of a spectrophotometer (Perkin-Elmer, Lambda 2) thermostatically controlled at 37° C., the wavelength of which for the measurement is adjusted to 340 nm. 0.05 ml of enzymatic suspension at 37° C. is introduced into the cell concomitantly with the recording (corresponding to a fall in optical density at 340 nm). The maximum rate of reaction is noted. […]

15PGDH [1] = biological target: T2, 15PGDH (Homo sapiens, UniProt P15428); assay: Specific inhibitory effectiveness for 15PGDH on a cell model (PGF2 secreted by PMA/LPS-treated U937); format: cell-based; design: endogenous in cells; host or cells: U937 (ATCC CRL-1593), PMA-differentiated, LPS-stimulated; settings: 5 μM test molecule, 10 ng LPS, 6 h at 37° C., immuno-enzymatic assay
T2 sequence (P15428 1-266): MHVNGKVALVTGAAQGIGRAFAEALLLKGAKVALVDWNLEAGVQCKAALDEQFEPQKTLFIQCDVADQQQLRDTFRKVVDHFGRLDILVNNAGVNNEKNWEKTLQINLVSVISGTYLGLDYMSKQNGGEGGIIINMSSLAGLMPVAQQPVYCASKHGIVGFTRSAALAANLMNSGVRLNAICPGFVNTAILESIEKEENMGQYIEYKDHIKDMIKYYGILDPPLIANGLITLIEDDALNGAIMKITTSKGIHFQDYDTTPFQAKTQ
Procedure: The present study is targeted at evaluating the compounds of formula (I) in a cell model. This study makes it possible to determine the penetration of the active principle into the cytosol and its effectiveness as specific inhibitor of 15-PGDH under more complex experimental conditions than a simple reaction medium.
D-2. Culturing of U937 (CRL-1593 American Type Cells Collection) in RPMI medium 1640+10% of foetal calf serum+2 mM of L-glutamine+antibiotics at 37° C. under 5% of CO2.
D-1. Preparation of a suspension of U937 (1×10^6 cells/ml) in RPMI medium 1640+10% of foetal calf serum+2 mM of glutamine+antibiotics+10 nM of PMA (phorbol 12-myristate 13-acetate); introduction of 200 μl per test well of this suspension into a 96-well plate (3 wells per molecule and per concentration to be tested+corresponding controls); incubation at 37° C. for 36 h 00 under 5% CO2.
D0. Removal of the supernatants (the cells have adhered to the bottom of the wells: monitoring using a microscope) and introduction into each well of 100 μl of RPMI 1640+2 mM of L-glutamine+10 ng of LipoPolySaccharide (LPS) (except absolute control)+the test molecule at the desired concentration (in this instance, 5 and 25 μM).
Incubation at 37° C. for 6 h 00 under 5% of CO2.
The mother solutions of test molecules are at 25 mM in DiMethyl SulfOxide.
All the wells comprise the same final amount of DMSO. […]

15PGDH [2] = biological target: T2, 15PGDH; assay: Test on 15-PGDH (spectrophotometric, 340 nm, PGE2/β-NAD); format: biochemical; design: made in house
Procedure: The enzyme 15-PGDH is obtained as disclosed in Application FR-A-02/05067, filed on behalf of L'Oréal, in suspension in a suitable medium at a concentration of 0.3 mg/ml, then blocked at −80° C. For the requirements of the test, this suspension is defrosted and stored in ice.
Furthermore, a Tris 100 mM, pH=7.4, buffer comprising 0.1 mM of dithiothreitol (D5545, Sigma-Aldrich, L'isle D'Abeau Chesne, BP 701, 38297, Saint Quentin Fallavier), 1.5 mM of β-NAD (N6522, Sigma-Aldrich, L'isle D'Abeau Chesne, BP 701, 38297, Saint Quentin Fallavier) and 50 μM of prostaglandin E2 (P4172, Sigma-Aldrich, L'isle D'Abeau Chesne, BP 701, 38297, Saint Quentin Fallavier) is prepared.
0.965 ml of this buffer (brought beforehand to 37° C.) is introduced into the cell of a spectrophotometer (Perkin-Elmer, Lambda 2) thermostatically controlled at 37° C., the wavelength of which for the measurement is adjusted to 340 nm. 0.035 ml of enzymatic suspension at 37° C. is introduced into the cell concomitantly with the recording (corresponding to an increase in optical density at 340 nm). The maximum rate of reaction is noted.
The test values (comprising the compounds (I)) are compared with the control value (without compound (I)); the results indicated represent the concentration at which the compound (I) inhibits 50% of the enzymatic activity of 15-PGDH, referred to as IC50dh.

| Structure (SMILES) | IC50 (PGF synthase) [nM] | amount of PGF2 secreted by the cells, % of the LPS control (15PGDH [1]) | IC50 (15PGDH [2]; Tris 100 mM pH 7.4, 37° C., 50 μM prostaglandin E2, 1.5 mM β-NAD, read-out: Inhibition of 15-PGDH IC50dh) [nM] | ratio IC50fs/IC50dh (15PGDH [2]; selectivity for 15-PGDH with respect to PGFS) |
| --- | --- | --- | --- | --- |
| O=C1NC(=O)C(=Cc2ccc(-c3ccc(C(=O)O)cc3)o2)S1 [Compound 1, 4-{5-[(2,4-Dioxo-1,3-thiazolidin-5-ylidene)methyl]-2-furyl}benzoic acid] | 4000 | +76 ± 20% | 300 | greater than 13 |
| O=C1N=C(O)/C(=C/c2ccc(-c3ccc(C(=O)O)cc3)o2)S1 [Compound 8, Disodium salt of 4-{5-[(2,4-disulpho-1,3-thiazolidin-5-ylidene)methyl]-2-furyl}benzoic acid (isomer Z)] | – | +44 ± 16% | – | – |
